Experiment [1] has as its system Staphylococcus aureus (S. aureus) 11540 strain. As to the kind of experiment: Standard microdilution MIC assay, S. aureus. Type of experiment: cell-based. As for the experimental part:
(§1) The in vitro activity of the compounds of the present disclosure can be determined. Antimicrobial testing is typically performed to determine the minimum inhibitory concentration (MIC). Minimum inhibitory concentrations (MICs) are determined by the microdilution method in a final volume of 100 μl according to protocols outlined by The Clinical and Laboratory Standards Institute (CLSI). Performance standards for reference strains are assessed within the same experimental design to maintain quality control. See, for example, Clinical Laboratory Standards Institute: Methods for dilution antimicrobial susceptibility tests for bacteria that grow aerobically M7-A8. Approved Standard-Eighth Edition. Wayne, PA: CLSI; December 2008; and Clinical Laboratory Standards Institute: Performance Standards for Antimicrobial Susceptibility Testing M100-S20; Approved Standard-Twentieth Edition. Wayne, PA: CLSI; June 2010.
(§2) The compounds of the present disclosure were tested for antimicrobial activity. The Compounds 1-293 were run against Escherichia coli (E co/i) strain ATCC25922 and against Staphylococcus aureus (S. aureus) 11540 strain using a standard microdilution assay to determine minimum inhibitory concentrations (MICs). […] It will be recognized by one skilled in the art that the compounds can be assessed against other bacterial organisms and that the presentation of data for activity against Escherichia coli and Staphylococcus aureus are illustrative and in no way is intended to limit the scope of the present disclosure. The compounds of the present disclosure can be assayed against a range of other microorganisms depending upon the performance activity desired to be gathered. Furthermore, the “+” and “−” representation and the selection of a cutoff value of 16 micrograms/mL is also illustrative and in no way is intended to limit the scope of the present disclosure.

Experiment [2] deals with Escherichia coli strain ATCC25922. Put plainly: Standard microdilution MIC assay, E. coli. Type of experiment: cell-based. As for the experimental part: as §1, §2
For orientation: In broth dilution the organism is exposed to a series of concentrations in liquid medium.

Each structure is given as a SMILES string. Bounds are passed on as bounds.

`CC(=N)NCC[C@@H]1CCC[C@@H](c2ccc(-n3cc4cc(-c5cc(CCC[C@@H](N)C(F)F)cc(Cl)c5F)[nH]c4nc3=O)cc2)N1` [Compound 139]: the minimal inhibitory concentration (MIC) in experiment [1] and in experiment [2] was at most 16 µg/mL throughout.
For `C=C[C@@H](CCNC(C)=N)NCc1ccc(-n2cc3cc(-c4cc(CCC[C@@H](N)CC(N)=O)cc(Cl)c4F)[nH]c3nc2=O)cc1` [Compound 157], the MIC in experiment [1] and in experiment [2] was at most 16 µg/mL each time.
On to `C=C[C@H](N)CCCc1cc(Cl)c(F)c(-c2cc3cn(-c4ccc([C@@H]5CCC[C@@H](CCNC(C)=N)N5)c(S(C)(=O)=O)c4)c(=O)nc3[nH]2)c1` [Compound 272], for which the MIC in experiment [1] and in experiment [2] was at most 16 µg/mL throughout.
On to `CSc1cc(-n2cc3cc(-c4cc(CCC[C@@H](N)C5CC5)cc(C(F)(F)F)c4)[nH]c3nc2=O)ccc1[C@@H]1CCC[C@@H](CCNC(C)=N)N1CCCF` [Compound 326], for which the minimal inhibitory concentration (MIC) in experiment [1] and in experiment [2] was at most 16 µg/mL each time.
Take `CC(=N)NCC[C@@H]1CCC[C@@H](c2ccc(-n3cc4cc(-c5cc(CCC[C@H](N)C(F)F)cc(Cl)c5F)[nH]c4nc3=O)cc2)N1` [Compound 141]: the minimum inhibitory concentration (MIC) in experiment [1] and in experiment [2] was at most 16 µg/mL each time.
Take `C=C[C@@H](N)CCCc1cc(Cl)c(F)c(-c2cc3cn(-c4ccc([C@@H]5CCC[C@@H](CCNC(C)=N)N5C)cc4)c(=O)nc3[nH]2)c1` [Compound 124]: the MIC in experiment [1] and in experiment [2] was at most 16 µg/mL each time.
As for `CSc1cc(-n2c(C)c3cc(-c4cc(CCC[C@@H](N)C5CC5)cc(Cl)c4F)[nH]c3nc2=O)ccc1[C@@H]1CCC[C@@H](CCNC(C)=N)N1` [Compound 335], the MIC in experiment [1] and in experiment [2] was at most 16 µg/mL in each case.
Take `CC(=N)NCC[C@H](CO)N[C@@H](C)c1ccc(-n2cc3cc(-c4cc(CCC[C@H](C)N)cc(Cl)c4F)[nH]c3nc2=O)cc1` [Compound 96]: the MIC in experiment [1] and in experiment [2] was at most 16 µg/mL in each case.
In the case of `C=C[C@@H](CCNC(=N)CF)NCc1ccc(-n2cc3cc(-c4cc(CCC[C@@H](N)C(F)(F)F)cc(Cl)c4F)[nH]c3nc2=O)cc1` [Compound 43], the MIC in experiment [1] and in experiment [2] was at most 16 µg/mL each time.
Consider `CC(=N)NCC[C@H](CNc1ncc[nH]1)NCc1ccc(-n2cc3cc(-c4cc(CCC[C@H](C)N)cc(Cl)c4F)[nH]c3nc2=O)cc1` [Compound 19], for which the minimum inhibitory concentration (MIC) in experiment [1] and in experiment [2] was at most 16 µg/mL throughout.
Take `CC(=N)NCC[C@@H]1CCC[C@@H](c2ccc(-n3cc4cc(-c5cc(CCC[C@H](C)N)cc(Cl)c5F)[nH]c4nc3=O)cc2)N1Cc1cocn1` [Compound 278]: the MIC in experiment [1] and in experiment [2] was at most 16 µg/mL throughout.
As to `COC[C@H](N)CCCc1cc(OC(F)(F)F)c(F)c(-c2cc3cn(-c4ccc([C@@H]5CCC[C@@H](CCNC(C)=N)N5)c(SC)c4)c(=O)nc3[nH]2)c1` [Compound 198], the MIC in experiment [1] and in experiment [2] was at most 16 µg/mL throughout.
`C=C[C@H](N)CCCc1cc(Cl)c(F)c(-c2cc3cn(-c4cc(F)c([C@@H]5CCC[C@@H](CCNC(C)=N)N5CCCF)c(SC)c4)c(=O)nc3[nH]2)c1` [Compound 350]: the minimum inhibitory concentration (MIC) in experiment [1] and in experiment [2] was at most 16 µg/mL throughout.
With `CC(=N)NCC[C@@H]1CCC[C@@H](c2c(F)cc(-n3cc4cc(-c5cc(CCC[C@@H](N)CO)cc(Cl)c5F)[nH]c4nc3=O)cc2F)N1` [Compound 281], the MIC in experiment [1] and in experiment [2] was at most 16 µg/mL each time.
For `CC(=N)NCC[C@@H]1CCC[C@@H](c2c(F)cc(-n3cc4cc(-c5cc(CCC[C@@H](N)C6CC6)cc(Cl)c5F)[nH]c4nc3=O)cc2F)N1` [Compound 247], the minimal inhibitory concentration (MIC) in experiment [1] and in experiment [2] was at most 16 µg/mL each time.
For the compound `C=C[C@@H](N)CCCc1cc(Cl)c(F)c(-c2cc3cn(-c4ccc([C@@H]5CCC[C@@H](CCNC(C)=N)N5)c(SC)c4)c(=O)nc3[nH]2)c1` [Compound 128], the MIC in experiment [1] and in experiment [2] was at most 16 µg/mL throughout.
With `C=C[C@H](N)CCCc1cc(-c2cc3cn(-c4cc(F)c([C@@H]5CCC[C@@H](CCNC(C)=N)N5CCCF)c(SC)c4)c(=O)nc3[nH]2)cc(C(F)(F)F)c1` [Compound 351], the minimal inhibitory concentration (MIC) in experiment [1] and in experiment [2] was at most 16 µg/mL in each case.
Consider `CSc1cc(-n2cc3cc(-c4cc(CCC[C@@H](N)C5CC5)cc(OC(F)(F)F)c4F)[nH]c3nc2=O)ccc1[C@@H]1CCC[C@@H](CCNC(C)=N)N1` [Compound 252], for which the MIC in experiment [1] and in experiment [2] was at most 16 µg/mL in each case.
Consider `CC(=N)NCC[C@@H]1CCC[C@@H](c2ccc(-n3cc4cc(-c5cc(CCC[C@@H](N)CF)cc(Cl)c5F)[nH]c4nc3=O)cc2)N1` [Compound 104], for which the MIC in experiment [1] and in experiment [2] was at most 16 µg/mL in each case.
Take `CSc1cc(-n2cc3cc(-c4cc(CCC[C@@H](N)C5CC5)cc(C(F)(F)F)c4)[nH]c3nc2=O)cc(F)c1[C@@H]1CCC[C@@H](CCNC(C)=N)N1` [Compound 286]: the minimum inhibitory concentration (MIC) in experiment [1] and in experiment [2] was at most 16 µg/mL in each case.
`COC[C@H](N)CCCc1cc(Cl)c(F)c(-c2cc3cn(-c4ccc([C@@H]5CCC[C@@H](CCNC(C)=N)N5)nc4)c(=O)nc3[nH]2)c1` [Compound 358]: the minimum inhibitory concentration (MIC) in experiment [1] and in experiment [2] was at most 16 µg/mL in each case.
With `C=C[C@@H](N)CCCc1cc(Cl)c(F)c(-c2cc3cn(-c4ccc([C@H](C)N[C@@H](C=C)CCNC(C)=N)cc4)c(=O)nc3[nH]2)c1` [Compound 149], the minimal inhibitory concentration (MIC) in experiment [1] and in experiment [2] was at most 16 µg/mL each time.
`CC(=N)NCC[C@@H]1CCC[C@@H](c2ccc(-n3cc4cc(-c5cc(CCC[C@@H](N)C6CC6)cc(C(F)(F)F)c5F)[nH]c4nc3=O)cc2OC(F)(F)F)N1` [Compound 229]: the MIC in experiment [1] and in experiment [2] was at most 16 µg/mL each time.
On to `COC[C@H](N)CCCc1cc(OC(F)(F)F)c(F)c(-c2cc3cn(-c4ccc([C@@H]5CCC[C@@H](CCNC(C)=N)N5)nc4)c(=O)nc3[nH]2)c1` [Compound 347], for which the minimum inhibitory concentration (MIC) in experiment [1] and in experiment [2] was at most 16 µg/mL throughout.
In the case of `N=C(CF)NCC[C@@H]1COC[C@@H](c2ccc(-n3cc4cc(-c5cc(CCC[C@@H](N)CO)cc(Cl)c5F)[nH]c4nc3=O)cc2)N1` [Compound 55], the MIC in experiment [1] and in experiment [2] was at most 16 µg/mL throughout.
In the case of `C=C[C@@H](CCNC(C)=N)NCc1ccc(-n2cc3cc(-c4cc(CCCC5(N)CC5)cc(Cl)c4F)[nH]c3nc2=O)cc1` [Compound 146], the MIC in experiment [1] and in experiment [2] was at most 16 µg/mL throughout.
With `CC(=N)NCC[C@@H]1CCC[C@@H](c2ccc(-n3cc4cc(-c5cc(Cl)cc(CCC[C@H](C)N)c5)[nH]c4nc3=O)cc2)N1` [Compound 370], the MIC in experiment [1] and in experiment [2] was at most 16 µg/mL in each case.
`N=C(CF)NCC[C@@H]1CCC[C@@H](c2ccc(-n3cc4cc(-c5cc(CCC[C@@H](N)C(F)(F)F)cc(Cl)c5F)[nH]c4nc3=O)cc2)N1` [Compound 64]: the minimum inhibitory concentration (MIC) in experiment [1] and in experiment [2] was at most 16 µg/mL in each case.
For `CC(=N)NCC[C@@H]1CCC[C@@H](c2ccc(-n3cc4cc(-c5cc(CCC[C@H](C)N)cc(Cl)c5F)[nH]c4nc3=O)cc2)N1Cc1c(C)ncn1C` [Compound 288], the minimal inhibitory concentration (MIC) in experiment [1] and in experiment [2] was at most 16 µg/mL in each case.
For the compound `C=C[C@H](N)CCCc1cc(Cl)c(F)c(-c2cc3cn(-c4ccc([C@@H]5COC[C@@H](CCNC(C)=N)N5)cc4)c(=O)nc3[nH]2)c1` [Compound 80], the MIC in experiment [1] and in experiment [2] was at most 16 µg/mL each time.
For `CC(=N)NCC[C@H](CO)NCc1ccc(-n2cc3cc(-c4cc(CCC(F)(F)CN)cc(Cl)c4F)[nH]c3nc2=O)cc1` [Compound 91], the MIC in experiment [1] and in experiment [2] was at most 16 µg/mL each time.
In the case of `CC(=N)NCC[C@@H]1CCC[C@@H](c2ccc(-n3cc4cc(-c5cc(CCC[C@H](C)N)cc(Cl)c5F)[nH]c4nc3=O)cc2)N1C[C@H](C)CO` [Compound 366], the MIC in experiment [1] and in experiment [2] was at most 16 µg/mL throughout.
With `COC[C@H](N)CCCc1cc(-c2cc3cn(-c4ccc([C@@H]5CCC[C@@H](CCNC(C)=N)N5)c(OC(F)(F)F)c4)c(=O)nc3[nH]2)cc(C(F)(F)F)c1` [Compound 214], the MIC in experiment [1] and in experiment [2] was at most 16 µg/mL each time.
As to `CC(=N)NCC[C@H](CO)N[C@@H](C)c1ccc(-n2cc3cc(-c4cc(CCC[C@H](C)N)cc(Cl)c4F)[nH]c3nc2=O)cc1F` [Compound 177], the MIC in experiment [1] and in experiment [2] was at most 16 µg/mL throughout.
For `COC[C@H](N)CCCc1cc(Cl)c(F)c(-c2cc3cn(-c4ccc([C@@H]5CCC[C@@H](CCNC(C)=N)N5)c(F)c4)c(=O)nc3[nH]2)c1` [Compound 171], the minimal inhibitory concentration (MIC) in experiment [1] and in experiment [2] was at most 16 µg/mL in each case.
`C=CC(CCNC(=N)CF)NCc1ccc(-n2cc3cc(-c4cc(CCCC(C)(C)N)cc(Cl)c4F)[nH]c3nc2=O)cc1` (stereo not shown) [Compound 22]: the MIC in experiment [1] and in experiment [2] was at most 16 µg/mL each time.
On to `COC[C@H](N)CCCc1cc(-c2cc3cn(-c4ccc(CN[C@H](CCNC(C)=N)C5CC5)cc4)c(=O)nc3[nH]2)c(F)c(C(F)(F)F)c1` [Compound 224], for which the minimum inhibitory concentration (MIC) in experiment [1] and in experiment [2] was at most 16 µg/mL in each case.
With `C=C[C@@H](N)CCCc1cc(Cl)c(F)c(-c2cc3cn(-c4ccc([C@@H]5CCC[C@@H](CCNC(C)=N)N5)c(F)c4)c(=O)nc3[nH]2)c1` [Compound 166], the MIC in experiment [1] and in experiment [2] was at most 16 µg/mL throughout.

These data come from patent US11999739B2, “Antimicrobials methods of making and using the same” (BIOVERSYS AG, priority 2016, dated 2024).
